Reference: patent US8461328B2, “Tricyclic heterocyclic compounds, compositions and methods of use thereof” (Genentech, Inc., priority 2010, dated 2013)
pKi: −log10 of the molar value.

Tests used:
Format in all cases: biochemical
[1] = target: T1, JAK2 (Homo sapiens, UniProt O60674); assay: JAK2 inhibition (Table 4); settings: read-out: JAK2 Ki
T1 construct: made in house; host or cells: SF9 insect cells (baculovirus)

[2] = target: T2, JAK3 (Homo sapiens, UniProt P52333); assay: JAK3 inhibition (Table 4); settings: read-out: JAK3 Ki
T2 construct: made in house; host or cells: SF9 insect cells (baculovirus)
T2 sequence (P52333 783-1124): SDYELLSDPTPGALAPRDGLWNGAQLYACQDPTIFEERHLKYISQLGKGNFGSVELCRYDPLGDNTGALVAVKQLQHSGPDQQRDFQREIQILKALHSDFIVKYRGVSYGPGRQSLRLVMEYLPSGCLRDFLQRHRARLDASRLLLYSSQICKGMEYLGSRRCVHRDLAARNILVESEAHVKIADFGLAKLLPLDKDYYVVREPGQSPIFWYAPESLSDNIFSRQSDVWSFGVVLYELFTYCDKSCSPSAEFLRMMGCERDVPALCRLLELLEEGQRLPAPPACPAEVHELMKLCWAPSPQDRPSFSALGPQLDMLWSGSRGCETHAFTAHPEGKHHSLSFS

[3] = target: T3, JAK1 (Homo sapiens, UniProt P23458); assay: JAK1 inhibition (Table 4); settings: read-out: JAK1 Ki
T3 construct: made in house; host or cells: SF9 insect cells (baculovirus)
T3 sequence (P23458 852-1154): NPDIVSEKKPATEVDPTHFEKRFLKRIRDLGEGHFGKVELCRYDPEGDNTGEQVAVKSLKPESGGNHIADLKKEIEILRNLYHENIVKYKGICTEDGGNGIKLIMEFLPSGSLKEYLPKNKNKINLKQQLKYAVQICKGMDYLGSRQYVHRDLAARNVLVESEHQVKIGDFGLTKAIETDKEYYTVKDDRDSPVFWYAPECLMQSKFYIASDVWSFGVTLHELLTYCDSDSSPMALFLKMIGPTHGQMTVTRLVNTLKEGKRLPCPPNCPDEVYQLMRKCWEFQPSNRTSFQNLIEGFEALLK

[4] = target: T4, TYK2 (Homo sapiens, UniProt P29597); assay: TYK2 inhibition (Table 4)
T4 construct: made in house; host or cells: SF9 insect cells (baculovirus)
T4 sequence (P29597 873-1187): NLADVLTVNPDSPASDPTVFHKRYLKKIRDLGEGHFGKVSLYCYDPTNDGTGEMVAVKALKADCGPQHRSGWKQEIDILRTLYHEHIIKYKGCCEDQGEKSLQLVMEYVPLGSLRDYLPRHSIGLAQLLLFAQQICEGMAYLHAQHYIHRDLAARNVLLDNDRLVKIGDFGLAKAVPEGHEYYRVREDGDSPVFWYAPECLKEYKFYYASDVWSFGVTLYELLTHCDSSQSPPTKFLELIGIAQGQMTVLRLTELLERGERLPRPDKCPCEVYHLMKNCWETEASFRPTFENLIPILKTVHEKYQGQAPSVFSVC

T1 sequence (O60674 812-1132): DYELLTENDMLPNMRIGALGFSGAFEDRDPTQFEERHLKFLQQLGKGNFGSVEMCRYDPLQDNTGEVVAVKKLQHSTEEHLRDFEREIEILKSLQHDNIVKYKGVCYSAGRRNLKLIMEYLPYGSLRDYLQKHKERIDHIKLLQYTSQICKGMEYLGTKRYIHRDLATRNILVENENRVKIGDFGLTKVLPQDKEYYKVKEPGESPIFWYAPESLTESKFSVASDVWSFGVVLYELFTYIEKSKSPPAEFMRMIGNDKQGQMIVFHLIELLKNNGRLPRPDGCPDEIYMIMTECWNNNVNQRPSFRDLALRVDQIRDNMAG

pKi [1]	pKi [2]	pKi [3]	pKi [4]	Structure (SMILES)
6.70	6.72	6.97	7.19	CC(O)c1nc2cnc3[nH]ccc3c2n1C1CCN(S(C)(=O)=O)CC1 (racemic) [Example 527, 1-[1-(1-Methanesulfonyl-piperidin-4-yl)-1,6-dihydro-1,3,5,6-tetraaza-as-indacen-2-yl]-ethanol]
7.29	8.01	8.24	6.35	O=C(Cc1nc2cnc3[nH]ccc3c2n1C1CCN(Cc2ccccc2)CC1)N1CCS(=O)(=O)CC1 [Example 102, 2-[1-(1-Benzyl-piperidin-4-yl)-1,6-dihydro-1,3,5,6-tetraaza-as-indacen-2-yl]-1-(1,1-dioxo-1λ*6*thiomorpholin-4-yl)ethanone]
6.07	6.14	7.99	6.47	CC(O)c1nc2cnc3[nH]ccc3c2n1C1CCNCC1 (racemic) [Example 291]
7.04	6.98	7.82	6.38	CCC(C)S(=O)(=O)NCc1nc2cnc3[nH]ccc3c2n1C1CCN(CCC#N)CC1 (racemic) [Example 502, Butane-2-sulfonic acid {1-[1-(2-cyano-ethyl)-piperidin-4-yl]-1,6-dihydro-1,3,5,6-tetraaza-as-indacen-2-ylmethyl}-amide]
6.50	6.15	6.38	5.71	N#CCC(=O)N1CC(n2cnc3cnc4[nH]ccc4c32)C1 [Example 38, 3-Oxo-3-[3-(6H-1,3,5,6-tetraaza-as-indacen-1-yl)-azetidin-1-yl]propionitrile]
7.21	7.35	7.96	6.79	C[C@@H](O)c1nc2cnc3[nH]ccc3c2n1C1CCN(Cc2ccnn2C)CC1 [Example 819, (R)-1-{1-[1-(2-Methyl-2H-pyrazol-3-ylmethyl)-piperidin-4-yl]-1,6-dihydro-1,3,5,6-tetraaza-as-indacen-2-yl}-ethanol]
6.48	5.98	7.03	6.02	N#Cc1nc2cnc3[nH]ccc3c2n1C1CCNCC1 [Example 170, 1-Piperidin-4-yl-1,6-dihydro-1,2,3,5,6-tetraaza-as-indacene-2-carbonitrile]
7.89	7.78	8.94	8.65	C[C@@H](O)c1nc2cnc3[nH]ccc3c2n1C1CCC(CC#N)CC1 (stereo partly drawn) [Example 1001, {4-[2-((R)-1-Hydroxy-ethyl)-6H-1,3,5,6-tetraaza-as-indacen-1-yl]-cyclohexyl}-acetonitrile]
7.20	6.89	8.29	7.42	C[C@@H](O)c1nc2cnc3[nH]ccc3c2n1C1CCC(n2ccnn2)CC1 (stereo partly drawn) [Example 1003, (R)-1-[1-(4-[1,2,3]Triazol-1-yl-cyclohexyl)-1,6-dihydro-1,3,5,6-tetraaza-as-indacen-2-yl]-ethanol]
8.09	7.43	8.07	7.39	N#Cc1ccc(S(=O)(=O)N2CCC[C@@H](n3cnc4cnc5[nH]ccc5c43)C2)cc1 [Example 360, 4-[(R)-3-(6H-1,3,5,6-Tetraaza-as-indacen-1-yl)-piperidine-1-sulfonyl]-benzonitrile]
6.78	5.50	6.66	5.82	CC(C)(C#N)C(=O)N1CC[C@@H](n2cnc3cnc4[nH]ccc4c32)C1 [Example 186, 2,2-Dimethyl-3-oxo-3-[(R)-3-(6H-1,2,3,5,6-tetraaza-as-indacen-1-yl)-pyrrolidin-1-yl]-propionitrile]
8.20	7.99	8.46	7.66	Cc1nc2cnc3[nH]ccc3c2n1C1CCc2[nH]ncc2C1 (racemic) [Example 486, 2-Methyl-1-(4,5,6,7-tetrahydro-1H-indazol-5-yl)-1,6-dihydro-1,3,5,6-tetraaza-as-indacene]
7.74	7.54	8.11	7.18	N#CCCNC1CCC(n2cnc3cnc4[nH]ccc4c32)C1 (racemic) [Example 300, 3-[3-(6H-1,3,5,6-Tetraaza-as-indacen-1-yl)-cyclopentylamino]-propionitrile]
9.03	7.77	9.11	8.43	CC(CC#N)N1CCC(n2cnc3cnc4[nH]ccc4c32)CC1 (racemic) [Example 305, 3-[4-(6H-1,3,5,6-Tetraaza-as-indacen-1-yl)-piperidin-1-yl]-butyronitrile]
7.25	6.81	7.75	6.86	N#CCCN1CCC(n2c(CCn3cccn3)nc3cnc4[nH]ccc4c32)CC1 [Example 414, 3-{4-[2-(2-Pyrazol-1-yl-ethyl)-6H-1,3,5,6-tetraaza-as-indacen-1-yl]-piperidin-1-yl}-propionitrile]
8.22	6.93	7.80	7.36	O=C(N1CCC[C@@H](n2cnc3cnc4[nH]ccc4c32)C1)C1(C(F)(F)F)CC1 [Example 228, [(R)-3-(6H-1,3,5,6-tetraaza-as-indacen-1-yl)-piperidin-1-yl]-(1-trifluoromethyl-cyclopropyl)-methanone]
7.20	5.97	7.50	6.37	O=C(c1cccnc1)N1CCC(n2cnc3cnc4[nH]ccc4c32)CC1 [Example 34, Pyridin-3-yl-[4-(6H-1,3,5,6-tetraaza-as-indacen-1-yl)-piperidin-1-yl]methanone]
7.78	7.56	8.53	7.11	N#CCCN1CCC(n2c(CCNS(=O)(=O)C3CC3)nc3cnc4[nH]ccc4c32)CC1 [Example 370, Cyclopropanesulfonic acid (2-{1-[1-(2-cyano-ethyl)-piperidin-4-yl]-1,6-dihydro-1,3,5,6-tetraaza-as-indacen-2-yl}-ethyl)-amide]
8.28	8.19	8.82	7.26	OCc1nc2cnc3[nH]ccc3c2n1C1CCN(Cc2cccnc2)CC1 [Example 278, [1-(1-Pyridin-3-ylmethyl-piperidin-4-yl)-1,6-dihydro-1,3,5,6-tetraaza-as-indacen-2-yl]-methanol]
6.31	6.32	6.56	5.95	c1cc2c(ncc3ncn(CC4CCNCC4)c32)[nH]1 [Example 255, 1-Piperidin-4-ylmethyl-1,6-dihydro-1,3,5,6-tetraaza-as-indacene]
7.30	6.54	7.67	6.80	OCCN1CCC(n2cnc3cnc4[nH]ccc4c32)CC1 [Example 338, 2-[4-(6H-1,3,5,6-Tetraaza-as-indacen-1-yl)-piperidin-1-yl]-ethanol]
6.57	6.56	7.29	6.92	CC(O)c1nc2cnc3[nH]ccc3c2n1C1CC2CCC1O2 (centres unmarked) [Example 906, 1-[1-(7-Oxa-bicyclo[2.2.1]hept-2-yl)-1,6-dihydro-1,3,5,6-tetraaza-as-indacen-2-yl]-ethanol]
7.43	7.02	7.76	6.75	NC(=O)CN1CCC[C@@H](n2cnc3cnc4[nH]ccc4c32)C1 [Example 11, 2-[(R)-3-(6H-1,2,3,5,6-Tetraaza-as-indacen-1-yl)-piperidin-1-yl]acetamide]
8.14	8.73	8.83	7.68	Cc1nc2cnc3[nH]ccc3c2n1C1CCC(NC(=O)CC(F)(F)F)C1 (racemic) [Example 730, 3,3,3-Trifluoro-N-[3-(2-methyl-6H-1,3,5,6-tetraaza-as-indacen-1-yl)-cyclopentyl]-propionamide]
6.53	7.03	7.28	5.71	N#Cc1cccc(CN2CCC(n3c(CC(=O)N4CCC(F)(F)CC4)nc4cnc5[nH]ccc5c43)CC2)n1 [Example 309]
7.23	7.69	7.85	5.70	CC(C)Cc1nc2cnc3[nH]ccc3c2n1C1CCN(Cc2ccccc2)CC1 [Example 224, 1-(1-Benzyl-piperidin-4-yl)-2-isobutyl-1,6-dihydro-1,3,5,6-tetraaza-as-indacene]
7.66	7.67	7.89	7.05	N#CCCN1CCC[C@@H](n2cnc3cnc4[nH]ccc4c32)C1 [Example 10, 3-[(R)-3-(6H-1,2,3,5,6-Tetraaza-as-indacen-1-yl)-piperidin-1-yl]-propionitrile]
6.04	6.08	6.86	6.17	C[C@@H](N)c1nc2cnc3[nH]ccc3c2n1C1CCCOC1 (single isomer, unassigned) [Example 669, 1-[1-(Tetrahydro-pyran-3-yl)-1,6-dihydro-1,2,3,5,6-tetraaza-as-indacen-2-yl]-ethylamine]
6.54	7.02	7.46	7.06	OC(c1nc2cnc3[nH]ccc3c2n1C1CCCCC1)C1CCOCC1 (racemic) [Example 875, (1-Cyclohexyl-1,6-dihydro-1,3,5,6-tetraaza-as-indacen-2-yl)-(tetrahydro-pyran-4-yl)-methanol]
